Common to all, as to assay: NCI anticancer screen, dose series, 48 h
Assay [1] concerns EKVX NSCLC.
Assay [2] has as its system HOP-62 NSCLC.
Assay [3] relates to KM12 colon.
Assay [4] concerns MALME-3M melanoma.
Assay [5] deals with MDA-MB-231 breast.
The test system of assay [6] is MOLT-4 leukemia.
Assay [7] deals with NCI/ADR-RES ovarian.
Assay [8] deals with OVCAR-3 ovarian.
Assay [9] deals with OVCAR-4 ovarian.
The subject of assay [10] is U251 CNS.

Data on eight molecules can be found in PubChem BioAssay (NCI).

Several values for one entry are separate records, joined by “and”; a condition that tells them apart may be missing. Identical values can stand only once.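 Compound exposure: 48 hours, 5 concentrations, 96-well plates. The concentration for 50% growth inhibition is given as GI50. TGI: concentration producing complete growth inhibition.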 Some results are limits rather than exact numbers.

As to `COc1ncc(-c2nc3c(n2C(C)C)[C@H](c2ccc(Cl)cc2)N(c2cc(Cl)cn(C)c2=O)C3=O)c(OC)n1`, the GI50 was 36.6 µM in assay [1]; 90 µM in [2]; 41.2 µM in assay [3]; 14.6 µM in assay [4]; 29.6 µM in assay [5]; 12.4 µM in assay [6]. Besides, the GI50 was 44 µM in assay [7], 46 µM in [8], 29.2 µM in assay [9] and 40.5 µM in assay [10]. The TGI in assay [1] was above 100 µM; in [2] it was above 100 µM; in [3] it was above 100 µM; in [4], 59.3 µM; in [5] it was above 100 µM; in assay [6], 39.6 µM. Moreover, the TGI in [7], in assay [8], in [9] and in [10] was above 100 µM throughout.
Take `CN1CCN(c2ccc(-c3cnc4c(-c5csc6ccccc56)cnn4c3)cc2)CC1`: the GI50 was 9.79 µM in assay [1]; 8.37 µM in [2]; 4.59 µM in [3]; 3.04 µM in assay [4]; 4.88 µM in assay [5]; 4.1 µM in assay [6]. The GI50 was 6.2 µM in assay [7], 3.02 µM in assay [8], 11.2 µM in [9] and 4.38 µM in [10]. The TGI was above 15 µM in [1]; above 15 µM in assay [2]; above 15 µM in assay [3]; 7.68 µM in assay [4]; 14.7 µM in [5]; above 15 µM in assay [6]. Further, the TGI is above 15 µM in assay [7], 6.59 µM in assay [8], above 15 µM in [9] and above 15 µM in assay [10].
Take `C/C=C(\C)C(=O)O[C@@H]1C(O)[C@H]2OC(COC(=O)CCC(=O)CCCCCC[C@H](CCCCC)O[C@@H]3OC(C)[C@H](OC(C)=O)C(O)[C@H]3O2)[C@H]1OC(=O)/C=C/c1ccccc1` (some centres undefined): the GI50 in assay [1] is below 0.0267 µM; in assay [2] it was below 0.0148 µM; in assay [3] it was below 0.0138 µM; in [4], 0.0558 µM; in assay [5], below 0.01 µM; in assay [6] it was 3.28 µM. The GI50 in assay [7] was 0.336 µM; in assay [8], 0.0284 µM; in assay [9], 1.74 µM; in [10] it was below 0.01 µM. Further, the TGI was above 87.9 µM in assay [1]; 7.18 µM in [2]; above 100 µM in assay [3]; 6.48 µM in [4]; below 0.0114 µM in assay [5]; above 100 µM in [6]. Besides, the TGI in assay [7] is above 100 µM; in [8] it was 13.7 µM; in assay [9] it was 42.5 µM; in [10], 6.39 µM.
For the molecule `COc1cc(-c2oc3c(OC)c(OC)cc(O)c3c(=O)c2OC)ccc1O`, the TGI was above 50 µM in assay [1]; above 100 µM in assay [2]; above 100 µM in assay [3]; above 100 µM in assay [4]; above 50 µM in [5]; 31.5 µM in [6]. Besides, the TGI is above 50 µM in [7], above 50 µM in assay [8], above 100 µM in assay [9] and above 100 µM in [10]. Further, the GI50 was 4.01 µM and 14.7 µM in [2]; > 100 µM and 19 µM in [3]; > 100 µM and 11.4 µM in [9]; 5.97 µM and 12.7 µM in [10].
With `O=C1c2cccnc2-c2nc(/C=C/c3ccccc3)cc3c2c1nc1ccccc13`, the GI50 was 2.82 µM in assay [1]; 2.78 µM in [2]; 1.78 µM in [3]; 5.01 µM in [4]; 6.95 µM in [5]; 1.57 µM in assay [6]. For the same molecule, the GI50 in [7] is 6.35 µM; in [8] it was 1.9 µM; in [9] it was 3.77 µM; in assay [10], 2.9 µM. Besides, the TGI is 14 µM in assay [1]; 11.8 µM in assay [2]; 5.04 µM in [3]; 20.5 µM in [4]; above 80.8 µM in [5]; 10.8 µM in assay [6]. The TGI in assay [7] amounted to 42.1 µM; in [8], 4.69 µM; in [9], 10.5 µM; in assay [10] it was 11.1 µM.
On to `O=C1C(Cl)=C(Nc2ccc3cn[nH]c3c2)C(=O)c2ccccc21`, for which the GI50 in assay [1] was 1.5 µM; in assay [2] it was 2.15 µM; in [3], 3.23 µM; in assay [4], 0.666 µM; in assay [5] it was 1.41 µM; in assay [6], 1.47 µM. The GI50 was 1.62 µM in assay [7], 1.08 µM in assay [8], 1.31 µM in [9] and 1.31 µM in assay [10]. For the same molecule, the TGI in assay [1] worked out at 4.6 µM; in [2], 5.29 µM; in [3] it was 14.7 µM; in [4], 1.95 µM; in assay [5], 2.73 µM; in assay [6] it was 4.15 µM. Further, the TGI in assay [7] turned out to be 3.42 µM; in assay [8], 2.27 µM; in [9], 2.58 µM; in assay [10], 2.58 µM.
Turning to `Cc1cc(=O)oc2cc(OC(=O)Nc3ccc(Cl)c(Cl)c3)ccc12`, the TGI in assay [1] is 85.2 µM; in assay [2], 63.2 µM; in assay [3] it was 84 µM; in assay [4] it was 51.8 µM; in assay [5], 58 µM; in assay [6] it was 44.4 µM. For the same molecule, the TGI in assay [7] is above 100 µM; in assay [8], 50.2 µM; in assay [9] it was above 100 µM; in [10] it was 56.8 µM.
Regarding `O=C1c2ccccc2S(=O)(=O)N1CSC(=S)N1CCCC1`, the GI50 in assay [1] was above 100 µM; in assay [2] it was above 100 µM; in assay [3], above 100 µM; in assay [4] it was above 100 µM; in assay [5], above 100 µM; in [6], 8.3 µM. Also, the GI50 in assay [7] is above 100 µM; in assay [8], above 25.6 µM; in assay [9], above 51.7 µM; in [10], above 100 µM. Besides, the TGI in [1], in assay [2], in [3], in assay [4], in [5] and in assay [6] was above 100 µM each time. Also, the TGI in [7], in [8], in [9] and in assay [10] was above 100 µM in each case.
